According to patent US20190119282A1, “IMIDAZOPYRIDAZINES USEFUL AS INHIBITORS OF THE PAR-2 SIGNALING PATHWAY” (Vertex Pharmaceuticals Incorporated, priority 2013, published 2019):

What was measured:
[1] = system: UTP-stimulated Ca2+ response in HT-29 cells; experiment: Ca FLIPR TETRA assay, ANTAGONIST mode, stimulation with 0.6 μM UTP; assay type: cell-based, human; settings: Homo sapiens, HT-29 cells, stimulation with 0.6 μM UTP
Procedure, shortened: (§1)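 Antagonist-mode FLIPR Tetra Ca2+ readout: after 30 min r.t. compound pre-incubation, HT-29 cells are challenged with trypsin (3.1 U/mL final), SLIGKV (8 μM), thrombin (1 U/mL) or UTP (0.6 μM). Cells were plated overnight in 1% FBS medium and dye-loaded with Calcium 5; an initial read checks compound agonism.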

[2] = molecular target: T1, PAR2 (HT-29 cells, SLIGKV activation) (Homo sapiens, UniProt P55085); experiment: Ca FLIPR TETRA assay, ANTAGONIST mode, stimulation with 8 μM SLIGKV; assay type: cell-based; settings: HT-29 cells, stimulation with 8 μM SLIGKV
T1 construct: host or cells: HT-29 cells
T1 sequence (P55085 26-397): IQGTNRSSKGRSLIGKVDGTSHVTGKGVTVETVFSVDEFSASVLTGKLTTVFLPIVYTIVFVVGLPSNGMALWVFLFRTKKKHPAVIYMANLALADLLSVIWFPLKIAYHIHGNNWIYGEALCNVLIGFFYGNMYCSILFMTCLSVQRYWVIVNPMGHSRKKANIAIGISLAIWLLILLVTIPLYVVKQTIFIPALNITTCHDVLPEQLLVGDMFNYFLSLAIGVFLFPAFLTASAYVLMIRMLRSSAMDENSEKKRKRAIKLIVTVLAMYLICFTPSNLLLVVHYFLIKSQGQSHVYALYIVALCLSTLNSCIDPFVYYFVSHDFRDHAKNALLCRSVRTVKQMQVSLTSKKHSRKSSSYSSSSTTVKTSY
Procedure, shortened: as §1

[3] = molecular target: T2, PAR2 (HT-29 cells, trypsin activation) (Homo sapiens, UniProt P55085); experiment: Ca FLIPR TETRA assay, ANTAGONIST mode, stimulation with 3.1 U/mL trypsin; assay type: cell-based; settings: HT-29 cells, stimulation with 3.1 U/mL trypsin
T2 construct: host or cells: HT-29 cells
T2 sequence (P55085 26-397): T1 sequence (P55085 26-397)
Procedure, shortened: as §1

[4] = system: Thrombin-stimulated Ca2+ response in HT-29 cells; experiment: Ca FLIPR TETRA assay, ANTAGONIST mode, stimulation with 1 U/mL Thrombin; assay type: cell-based, human; settings: Homo sapiens, HT-29 cells, stimulation with 1 U/mL Thrombin
Procedure, shortened: as §1

Compound | IC50 ([1]; antagonist mode) [nM] | IC50 ([2]; antagonist mode) [nM] | IC50 ([3]; antagonist mode) [nM] | IC50 ([4]; antagonist mode) [nM] | IC50 [1] [nM] | IC50 [2] [nM] | IC50 [3] [nM] | IC50 [4] [nM]
CCc1cc(-c2ccc(F)cc2)nn2cc(C(=O)N3CCN(C(=O)Cc4ccncc4)[C@@H](C)C3)nc12 [Compound I-163] |  |  |  |  | 13000 | 640 | 1700 | 12000
CC(C)N1CCN(C(=O)c2cn3nc(-c4ccc(F)cc4)cc(C(C)(C)C)c3n2)C(C)(C)C1=O [Compound I-207] | > 1000 | 9.8 | 8.3 | > 1000 |  |  |  | 
CC(C)(O)C(=O)N1CCN(C(=O)c2cn3nc(-c4ccc(F)cc4)cc(C4CC4)c3n2)C(C)(C)C1 [Compound I-20, 1-[4-[8-cyclopropyl-6-(4-fluorophenyl)imidazo[1,2-b]pyridazine-2-carbonyl]-3,3-dimethyl-piperazin-1-yl]-2-hydroxy-2-methyl-propan-1-one] |  |  |  |  | 3000 | 280 | 1020 | 3600
Cc1cc(-c2ccc(F)cc2)nn2cc(C(=O)N3CCN(C(=O)C(C)(C)O)[C@@H](C)C3)nc12 [Compound I-158] |  |  |  |  | 67000 | 9100 | 26000 | 77000
CC(C)c1cc(-c2ccc(F)cc2)nn2cc(C(=O)N3CCN(C(=O)C(O)C(C)C)[C@@H](C)C3)nc12 (stereo partly shown) [Compound I-116] |  |  |  |  | 22000 | 12 | 72 | 19000
CC[C@@H](O)C(=O)N1CCN(C(=O)c2cn3nc(-c4ccc(F)cc4)cc(C(C)C)c3n2)C[C@@H]1C [Compound I-118] |  |  |  |  | 27000 | 16 | 1000 | 31000
Cc1ccc(-c2cc(C(C)C)c3nc(C(=O)N4CCN(C(=O)c5ccn[nH]5)CC4(C)C)cn3n2)cc1 [Compound I-255] | > 1000 | 3.6 | 3.8 | > 1000 |  |  |  | 
CC(C)(O)C(=O)N1CCN(C(=O)c2cn3nc(-c4ccc(F)cc4)cc(C(F)(F)F)c3n2)C(C)(C)C1 [Compound I-36, 1-[4-[6-(4-Fluorophenyl)-8-(trifluoromethyl)imidazo[1,2-b]pyridazine-2-carbonyl]-3,3-dimethyl-piperazin-1-yl]-2-hydroxy-2-methyl-propan-1-one] |  |  |  |  | > 50000 | 71 | 240 | > 50000

Results, then the compound that gave them:

IC50 ([1]; antagonist mode) [nM] | IC50 ([2]; antagonist mode) [nM] | IC50 ([3]; antagonist mode) [nM] | IC50 ([4]; antagonist mode) [nM] | IC50 [1] [nM] | IC50 [2] [nM] | IC50 [3] [nM] | IC50 [4] [nM] | Compound
> 1000 | 6.3 | 8.2 | 950 |  |  |  |  | Cc1cccc(-c2cc(C(C)(C)C)c3nc(C(=O)N4CCN(C(=O)c5nnc(C)o5)CC4(C)C)cn3n2)c1 [Compound I-410]
> 1000 | 0.9 | 2 | > 1000 |  |  |  |  | Cc1ncc(C(=O)N2CCN(C(=O)c3cn4nc(-c5ccc(F)c(Cl)c5)cc(C(C)(C)C)c4n3)C(C)(C)C2)[nH]1 [Compound I-467]
> 1000 | 21.1 | 22.5 | > 1000 |  |  |  |  | Cc1nnc(C(=O)N2CCN(C(=O)c3cn4nc(-c5ccc(F)cc5)cc(C(C)C)c4n3)C(C)(C)C2)o1 [Compound I-324]
> 1000 | 9.4 | 10.5 | > 1000 |  |  |  |  | Cc1cc(-c2cc(C(C)C)c3nc(C(=O)N4CCN(C(=O)c5ccccn5)CC4(C)C)cn3n2)ccc1F [Compound I-379]
> 1000 | 2.9 | 2.3 | > 1000 |  |  |  |  | Cc1ccc(-c2cc(C(C)(C)C)c3nc(C(=O)N4CCNC(=O)C4(C)C)cn3n2)cc1 [Compound I-347]
4100 | 1 | 0.9 | 8600 |  |  |  |  | CC(C)(C)c1cc(-c2ccc(Cl)cc2)nn2cc(C(=O)N3CCN(C(=O)C4CC(C(=O)O)C4)CC3(C)C)nc12 (stereo not shown) [Compound I-489]
> 1000 | 2.3 | 3.8 | > 1000 |  |  |  |  | Cc1ccc(-c2cc(C(C)C)c3nc(C(=O)N4CCN(C(=O)c5ccccn5)CC4(C)C)cn3n2)cc1F [Compound I-375]
> 1000 | 0.1 | 0.3 | > 1000 |  |  |  |  | Cc1cc(C(=O)N2CCN(C(=O)c3cn4nc(-c5ccc(Cl)c(F)c5)cc(C(C)(C)C)c4n3)C(C)(C)C2)[nH]n1 [Compound I-450]
